ChEMBL document CHEMBL2040728, “New substituted 4H-chromenes as anticancer agents” (Bioorg Med Chem Lett, 2012)
Activity calls are given as the source filed them. The rule behind the calls is not given here.

Experiments:
LNCaP = assay: Antiproliferative activity against human LNCAP cells after 96 hrs by SRB assay; type: functional, cell-based
[1] = Antiproliferative activity against human WM164 cells after 48 hrs by SRB assay; type: functional, cell-based; conditions: WM164, 48 h
A-375 = assay: Antiproliferative activity against human A375 cells after 48 hrs by SRB assay; type: functional, cell-based; conditions: A-375, 48 h
PC-3 = assay: Antiproliferative activity against human PC3 cells after 96 hrs by SRB assay; type: functional, cell-based; conditions: PC-3, 96 h
[2] = Antiproliferative activity against human paclitaxel-resistant PC3-TxR cells after 96 hrs by SRB assay; type: functional, cell-based
Bos taurus [3] = species: Bos taurus; assay: Inhibition of bovine brain tubulin polymerization at 5 uM after 20 mins by spectrophotometric analysis relative to control
Bos taurus [4] = species: Bos taurus; assay: Inhibition of bovine brain tubulin polymerization after 20 mins by spectrophotometric analysis
[5] = Cytotoxicity against mouse primary astrocytes after 5 days by MTT assay; type: cell-based; conditions: Astrocyte, 120 h
[6] = Antiproliferative activity against human LN18 cells after 5 days by MTT assay; type: functional, cell-based; conditions: LN-18, 120 h
T98G = assay: Antiproliferative activity against human T98G cells after 5 days by MTT assay; type: functional, cell-based; conditions: 120 h
[7] = Antiproliferative activity against human A172 cells after 5 days by MTT assay; type: functional, cell-based; conditions: A 172, 120 h
Bos taurus [8] = species: Bos taurus; assay: Inhibition of bovine brain tubulin polymerization at 10 uM after 20 mins by spectrophotometric analysis
[9] = Antiproliferative activity against human U87 cells after 5 days by MTT assay; type: functional, cell-based, U-87MG ATCC; conditions: U-87 MG, 120 h
Bos taurus [10] = species: Bos taurus; assay: Inhibition of bovine brain tubulin polymerization at 20 uM after 20 mins by spectrophotometric analysis

| IC50 (LNCaP) [nM] | IC50 (A-375) [nM] | IC50 (PC-3) [nM] | inhibition (Bos taurus [3]) | inhibition (Bos taurus [4]) | inhibition (Bos taurus [8]) [%] | inhibition (Bos taurus [10]) [%] | Compound | IC50 [1] [nM] | IC50 [2] [nM] | IC50 [5] [nM] | IC50 [6] [nM] | IC50 (T98G) [nM] | IC50 [7] [nM] | IC50 [9] [nM] |
| --- | --- | --- | --- | --- | --- | --- | --- | --- | --- | --- | --- | --- | --- | --- |
| 280 | 140 | 390 | – | – | – | – | CN(C)c1ccc2c(c1)OC(N)=C(C#N)C2c1cccc2c(Br)cccc12 (centres undefined) | 220 | 210 | – | – | – | – | – |
| – | – | – | inactive | – | – | – | CC(=O)O[C@H]1C(=O)[C@@]2(C)[C@H]([C@H](OC(=O)c3ccccc3)[C@]3(O)C[C@H](OC(=O)[C@H](O)[C@@H](NC(=O)c4ccccc4)c4ccccc4)C(C)=C1C3(C)C)[C@]1(OC(C)=O)CO[C@@H]1C[C@@H]2O | – | – | – | – | – | – | – |
| 140 | 80 | 220 | – | Dose-dependent effect | 29 | 68 | CN(C)c1ccc2c(c1)OC(N)=C(C#N)C2c1ccc(N(C)C)c2ccccc12 (centres undefined) | 160 | 230 | 2030 | 13.3 | 12.5 | 7.4 | 20.6 |
| 760 | 440 | 430 | – | – | – | – | COc1ccc(C2C(C#N)=C(N)Oc3cc(N(C)C)ccc32)c2ccccc12 (centres undefined) | 490 | 530 | – | – | – | – | – |
